Results from US20250026762A1, “FUSED PYRAZOLE UREA ANALOGS AS GLUCOSYLCERAMIDE SYNTHASE INHIBITORS” (Merck Sharp & Dohme LLC, priority 2021, published 2025).

Test system: GD and PD patient-derived induced pluripotent stem cell (iPSC) neurons
Experiment: not given
Details: Zunke, F. et al., Neuron 2018; cited from earlier work

Compound | formation of pathological α-synuclein aggregates
CCCCCCCC(=O)N[C@H](CN1CCCC1)[C@H](O)c1ccc2c(c1)OCCO2 [eliglustat, Eliglustat] | reverse the formation of pathological α-synuclein aggregates

Molecular target: glucosylceramide synthase (GCS) enzyme in Golgi preparations from human A375 malignant melanoma skin cells (Homo sapiens (Human), UniProt Q16739)
Experiment: UDP-Glo glucosylceramide synthase biochemical assay
Details: 1.5 μg crude golgi preparation; C6 ceramide and UDP-glucose at 2×Km; 20 h incubation at room temperature; luminescence
From the text: UDP-Glo™ Glucosylceramide Synthase Biochemical Assay
A UDP-Glo™ glucosylceramide synthase biochemical assay was utilized to evaluate the effect of test compounds on the activity of endogenous levels of GCS enzyme contained within Golgi preparations isolated from human A375 malignant melanoma skin cells. The UDP-Glo™ glucosylceramide synthase assay uses UDP-Glucose as a nucleotide-glycosyl donor and ceramide as substrate acceptor molecules. In the reaction, glucosylceramide synthase (GCS) transfers glucose from UDP-Glucose to ceramide. Glucosylceramide and UDP are released as products.
Using Promega's UDP-Glo™ Glycosyltransferase assay kit (Promega Corporation, Madison, WI, USA (Promega)), GCS activity was indirectly measured by detecting the amount of UDP produced. An aliquot of GCS enzyme (1.5 μg crude golgi preparation, total protein) and titrated test compound were aliquoted to each well and incubated for 30 minutes at room temperature. Substrate mixture was prepared by mixing C6 ceramide (Avanti Polar Lipids, Alabaster, AL USA (Avanti)) (micelles prepared at 0.6 mM in 0.6 mM DOPC) and UDP-glucose (20 μM; Promega), at concentrations equivalent to 2×Km, in assay buffer (25 mM HEPES (pH 7.5), 50 mM KCl, 5 mM MgCl2). An equivalent volume of substrate mixture was then added to each well. Following a 20 h incubation at room temperature to allow for GCS turnover of substrate, an equal volume of UDP detection reagent (Promega) was added to each well and incubated for an additional 75 minutes at room temperature to simultaneously convert the accumulated UDP product into ATP and generate light in a luciferase reaction. The generated light was detected using a luminometer. […] luminescence values (RLUs) were normalized to mean “min” and “max” effects, as determined on each plate. “Min” was defined as the mean of the values of the wells treated with vehicle (DMSO) and which represent 0% inhibition; “max” was defined as the mean of the values of the wells treated with a reference inhibitor and which represent the 100% effect. Values for % Emax and EC50 were determined by best-fitting the normalized data to a curve in Activity Base along a four-parameter logistic nonlinear regression (4PL) model (based on the Levenberg-Marquardt algorithm and defined by the equation below): […]
where: n is 4PMin (bottom of the curve); m is 4PMax (top of the curve); i is IP (inflection point of curve); andp is slope. See Levenberg, K., “A Method for the Solution of Certain Problems in Least Squares”, Quart. Appl. Math. 2, (1944), pp 164-168 and Marquardt, D., “An Algorithm for Least Squares Estimation on Nonlinear Parameters”, SIAM J. Appl. Math. 11, (1963) pp 431-441.

glucosylceramide synthase (GCS) enzyme in Golgi preparations from human A375 malignant melanoma skin cells, sequence (Q16739 whole entry): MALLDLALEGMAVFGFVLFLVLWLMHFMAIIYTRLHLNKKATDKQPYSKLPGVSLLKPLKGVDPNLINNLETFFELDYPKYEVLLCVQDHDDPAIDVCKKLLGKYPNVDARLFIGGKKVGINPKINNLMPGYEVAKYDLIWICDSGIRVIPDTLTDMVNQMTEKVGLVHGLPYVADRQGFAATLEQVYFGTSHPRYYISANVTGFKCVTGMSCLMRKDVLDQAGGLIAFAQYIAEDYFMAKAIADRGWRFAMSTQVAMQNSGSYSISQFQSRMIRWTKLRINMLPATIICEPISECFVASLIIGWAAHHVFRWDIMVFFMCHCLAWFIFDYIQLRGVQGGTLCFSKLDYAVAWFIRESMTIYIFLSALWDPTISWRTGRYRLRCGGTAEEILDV

Compound | EC50
O=C(N1CCN2CCC1CC2)n1nc(-c2ccc(F)cc2)c2c1[C@H]1C[C@H]1C2 [Compound 11, (1,4-diazabicyclo[3.2.2]nonan-4-yl)((4aS,5aS)-3-(4-fluorophenyl)-4,4a,5,5a-tetrahydro-1H-cyclopropa[4,5]cyclopenta[1,2-c]pyrazol-1-yl)methanone] | 0.1 nM
O=C(N1CCN2CCC1CC2)n1nc(-n2nc(C(F)(F)F)ccc2=O)c2c1CCOC2 [Compound 25, 2-(1-(1,4-diazabicyclo[3.2.2]nonane-4-carbonyl)-1,4,6,7-tetrahydropyrano[4,3-c]pyrazol-3-yl)-6-(trifluoromethyl)pyridazin-3(2H)-one] | 27 nM
CC1CCOc2c1c(-c1ccc(F)cc1)nn2C(=O)N1CCN2CCC1CC2 (stereo not drawn) [Compound 62, R and S-(1,4-diazabicyclo[3.2.2]nonan-4-yl)(3-(4-fluorophenyl)-4-methyl-5,6-dihydropyrano[2,3-c]pyrazol-1(4H)-yl)methanone] | 7.7 nM
O=C(N1CCN2CCC1CC2)n1nc(-n2cc(Cl)cn2)c2c1CCOC2 [Compound 60, (1,4-diazabicyclo[3.2.2]nonan-4-yl)(3-(4-chloro-1H-pyrazol-1-yl)-6,7-dihydropyrano[4,3-c]pyrazol-1(4H)-yl)methanone] | 4.8 nM
O=C(N1CCN2CCC1CC2)n1nc(-c2ccc(F)cc2)c2c1CC(O)C2 (stereo not drawn) [Compound 21, R and S-(1,4-diazabicyclo[3.2.2]nonan-4-yl)(3-(4-fluorophenyl)-5-hydroxy-5,6-dihydrocyclopenta[c]pyrazol-1(4H)-yl)methanone] | 19.3 nM
CC1CCc2c(-c3ccc(F)cc3)nn(C(=O)N3CCN4CCC3CC4)c2O1 (stereo not drawn) [Compound 63, R and S-(1,4-diazabicyclo-[3.2.2]nonan-4-yl)(3-(4-fluorophenyl)-6-methyl-5,6-dihydropyrano[2,3-c]pyrazol-1(4H)-yl)methanone] | 17.5 nM
O=C(N1CCN2CCC1CC2)n1nc(-n2cc(C(F)(F)F)cn2)c2c1CCC2 [Compound 54, (1,4-diazabicyclo[3.2.2]nonan-4-yl)(3-(4-(trifluoromethyl)-1H-pyrazol-1-yl)-5,6-dihydrocyclopenta[c]pyrazol-1(4H)-yl)methanone] | 0.8 nM
COc1nccc(-c2nn(C(=O)N3CCN4CCC3CC4)c3c2CCC3)c1Cl [Compound 40, [3-(3-chloro-2-methoxy-4-pyridyl)-5,6-dihydro-4H-cyclopenta[c]pyrazol-1-yl]-(1,4-diazabicyclo[3.2.2]nonan-4-yl)methanone] | 1.2 nM
O=C(N1CCN2CCC1CC2)n1nc(-c2ccc(F)c(Cl)c2)c2c1COC2 [Compound 50, (1,4-diazabicyclo[3.2.2]nonan-4-yl)(3-(3-chloro-4-fluorophenyl)-4,6-dihydro-1H-furo[3,4-c]pyrazol-1-yl)methanone] | 14.9 nM
COc1ncc(-c2nn(C(=O)N3CCN4CCC3CC4)c3c2C[C@@H]2C[C@H]32)cc1Cl [Compound 8, (1,4-diazabicyclo[3.2.2]nonan-4-yl)((4aS,5aS)-3-(5-chloro-6-methoxypyridin-3-yl)-4,4a,5,5a-tetrahydro-1H-cyclopropa[4,5]cyclopenta[1,2-c]pyrazol-1-yl)methanone] | 0.1 nM
